Legend:
Format in all cases: functional
Tetranychus urticae [1] = test: Resistant ratio, LC50 for Tetranychus urticae FPY 14 (two-spotted spider mite) to LC50 for Tetranychus urticae GSS
Tetranychus urticae [2] = test: Insecticidal activity against Tetranychus urticae FPY 14 (two-spotted spider mite) assessed as mortality at 26 +/- 2 degC with 60 +/- 5% RH for first 24 hr
Tetranychus urticae [3] = test: Insecticidal activity against Tetranychus urticae GSS (two-spotted spider mite) assessed as mortality at 26 +/- 2 degC with 60 +/- 5% RH for first 24 hr

Compound | RatioLC50 (Tetranychus urticae [1]) | LC50 (Tetranychus urticae [2]) [mgAi/L] | LC50 (Tetranychus urticae [3]) [mgAi/L] | LC60 (Tetranychus urticae [2]) [mgAi/L] | LC90 (Tetranychus urticae [2]) [mgAi/L] | LC60 (Tetranychus urticae [3]) [mgAi/L] | LC90 (Tetranychus urticae [3]) [mgAi/L]
Cc1c(COC(=O)[C@@H]2[C@H](/C=C(\Cl)C(F)(F)F)C2(C)C)cccc1-c1ccccc1 (relative stereo) [BIFENTHRIN] | <1 | 12.77 | 54.53 |  |  |  | 
CC[C@H](C)[C@H]1O[C@]2(C=C[C@@H]1C)C[C@@H]1C[C@@H](C/C=C(\C)[C@@H](O[C@H]3C[C@H](OC)[C@@H](O[C@H]4C[C@H](OC)[C@@H](O)[C@H](C)O4)[C@H](C)O3)[C@@H](C)/C=C/C=C3\CO[C@@H]4[C@H](O)C(C)=C[C@@H](C(=O)O1)[C@]34O)O2.CO[C@H]1C[C@H](O[C@H]2[C@H](C)O[C@@H](O[C@@H]3/C(C)=C/C[C@@H]4C[C@@H](C[C@]5(C=C[C@H](C)[C@@H](C(C)C)O5)O4)OC(=O)[C@@H]4C=C(C)[C@@H](O)[C@H]5OC/C(=C\C=C\[C@@H]3C)[C@]54O)C[C@@H]2OC)O[C@@H](C)[C@@H]1O [ABAMECTIN] | 7.8 | 1.56 | 0.2 |  |  |  | 
Cc1ccc(/N=C/N(C)/C=N/c2ccc(C)cc2C)c(C)c1 [AMITRAZ] | 2.78 | 167.13 | 60.07 |  |  |  | 
CCOP(=S)(OCC)Oc1nc(Cl)c(Cl)cc1Cl [CHLORPYRIFOS] | 6.9 | 85.84 | 12.44 |  |  |  | 
Clc1ccccc1-c1nnc(-c2ccccc2Cl)nn1 [CLOFENTEZINE] | 4.78 | 68.52 | 14.32 |  |  |  | 
Cc1nn(C)c(Oc2ccccc2)c1/C=N/OCc1ccc(C(=O)OC(C)(C)C)cc1 [FENPYROXYMATE] |  |  |  | 319.1 | 1637.86 | 5.1 | 29.5
C#CCOS(=O)OC1CCCCC1Oc1ccc(C(C)(C)C)cc1 (configuration not stated) [PROPARGITE] | 6.43 | 482.52 | 75 |  |  |  | 
